In publication PMC10419252, “Synthesis, Properties, and Biomedical Application of Dicationic Gemini Surfactants with Dodecane Spacer and Carbamate Fragments” (International Journal of Molecular Sciences, 2023):
“And” between values parts separate entries of the source, which are not always exact repeats. Equal entries are not always repeated. Where two headings read alike, the source gives them in different places.

Experiments:
[1] = alkyltrimethylammonium bromides; cited from earlier work
[2] = tested on: Enterococcus faecalis ATCC 29212; test: Antimicrobial activity (Ef); assay type: cell-based; details: Enterococcus faecalis
Description: (§1) The antimicrobial activity of the compounds was tested on Gram-positive Staphylococcus aureus ATCC 6538P FDA 209P (Sa), Bacillus cereus ATCC 10702 NCTC 8035 (Bc), Enterococcus faecalis ATCC 29212 (Ef), and Gram-negative bacteria Escherichia coli ATCC 25922 (Ec), Pseudomonas aeruginosa ATCC 9027 (Pa), including methicillin-resistant strains of S. aureus MRSA-1 (resistant to fluoroquinolones and beta-lactams) and MRSA-2 (resistant to beta-lactams). Antifungal activity was studied against Candida albicans ATCC 10231 (Ca), Trichophyton mentagrophytes var. gypseum 1773 (Tm), and Aspergillus niger BKMF-1119 (An). A more detailed description of the experiment is published in [21].

[3] = tested on: Staphylococcus aureus ATCC 6538P FDA 209P; test: Antimicrobial activity (Sa); assay type: cell-based; details: Staphylococcus aureus
Description: as §1

[4] = tested on: Bacillus cereus ATCC 10702 NCTC 8035; test: Antimicrobial activity (Bc); assay type: cell-based; details: Bacillus cereus
Description: as §1

[5] = Orange OT solubilization, spectrophotometry (Schott method for Nagg); assay type: physicochemical
Description: (§2) The cmc and the solubilizing capacity (S) of surfactants were determined using the spectral azo dye OOT and the non-steroidal anti-inflammatory drug IND. To obtain a saturated solution, an excess of OOT and IND was added to 2 mL of a surfactant solution, stirred, and kept for 48 and 24 h, respectively. After that, the solutions were filtered using Millex® Syringe Filters (Millipore, Burlington, MA, USA) with a pore size of 450 nm, and the optical density was measured. The absorption spectra were recorded on a Specord 250 Plus spectrophotometer (Analytik Jena AG, Jena, Germany). Quartz cells with a thickness of 1 and 0.5 cm (Hellma Analytics, Müllheim, Germany) were used for measurements.
(§3) The solubilizing capacity (S) was determined using the following formula:S = b/ε, where b is D/l = f (Csurf) dependency slope (above cmc), ε is the extinction coefficient (17,400 L/mol∙cm for OOT, and the extinction coefficients of IND are determined in GS solutions and presented in Figure S10).
The OOT solubilization method (Schott method) was used to calculate the micelle Nagg. The Nagg values were calculated for each point on the curve of dependence of the OOT-reduced optical density on the surfactant concentration above the cmc according to the presented formula:[…], where ε is the extinction coefficient of OOT, Csurf is the surfactant concentration above cmc, and D is the optical density.

Conductometry = assay type: physicochemical; details: 298 K
Description: The electrical conductivity of the micellar solutions was determined on an InoLab Cond 7110 conductometer (WTW, Weilheim, Germany). For the experiment, surfactant solutions with a volume of 10 mL were prepared. The electrical conductivity of all solutions was recorded at 298 K, and the electrode was washed with purified water after each measurement. The cmc was determined from the breakpoint of the dependence of electrical conductivity on the concentration of surfactants.

[6] = target: T1, human acetylcholinesterase (hAChE) (Homo sapiens, UniProt P22303); test: biochemical
T1 construct: purchased Sigma-Aldrich
T1 sequence (P22303 32-614): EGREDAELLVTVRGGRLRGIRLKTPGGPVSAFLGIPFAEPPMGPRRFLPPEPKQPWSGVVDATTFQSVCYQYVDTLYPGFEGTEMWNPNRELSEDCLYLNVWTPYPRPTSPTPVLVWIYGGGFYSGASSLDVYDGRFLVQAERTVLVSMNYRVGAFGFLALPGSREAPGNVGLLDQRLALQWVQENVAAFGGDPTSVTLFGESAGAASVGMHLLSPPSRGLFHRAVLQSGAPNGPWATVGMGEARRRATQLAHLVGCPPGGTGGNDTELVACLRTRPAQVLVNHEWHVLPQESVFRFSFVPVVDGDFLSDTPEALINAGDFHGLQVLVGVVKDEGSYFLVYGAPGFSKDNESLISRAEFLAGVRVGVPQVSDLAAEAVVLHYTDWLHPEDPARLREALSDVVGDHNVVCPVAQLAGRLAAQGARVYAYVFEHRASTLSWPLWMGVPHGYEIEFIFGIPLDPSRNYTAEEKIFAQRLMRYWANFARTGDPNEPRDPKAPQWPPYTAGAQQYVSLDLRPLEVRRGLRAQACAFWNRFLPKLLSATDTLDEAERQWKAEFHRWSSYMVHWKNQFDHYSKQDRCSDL
Description: (§4) Stock solutions (0.01 M) of the compounds were dissolved in H2O. The inhibitory activity of compounds against hAChE and hBChE was measured using Ellman’s method. Enzyme-catalyzed hydrolysis was carried out in 0.1 M PBS (pH = 8.0) containing 0.1 nM hAChE or hBChE, 0.1 mM 5,5′-dithiobis-(2-nitrobenzoic acid) and 1mM acetylthiocholine or butyrylthiocholine as substrates. The tested compounds were incubated with the enzyme for 5 min prior to the addition of the substrate. Analyses were performed at 298 K using a Shimadzu UV-1800 spectrophotometer (Shimadzu Co., Kyoto, Japan) at 412 nm. The substrate hydrolysis rate was measured within 2 min. A sample without inhibitor was used as a control (100% cholinesterase activity). A sample without substrate was used as a blank. The experiments were conducted in triplicate. The percentage of enzyme inhibition was determined using OriginPro 8.5 software (OriginLab Corporation, Northampton, MA, USA) by plotting a percentage of the inhibition versus compound concentration. IC50 values (inhibitor concentration required to inhibit enzyme activity by 50%) were determined by the Hill equation: E/Emax=[I]^n/IC50n+[I]^n, where E is enzyme activity in the presence of the compound, and [I] is the compound concentration.

[7] = tested on: methicillin-resistant S. aureus MRSA-2 (resistant to beta-lactams); test: Antimicrobial activity (MRSA-2); assay type: cell-based; details: Staphylococcus aureus, MRSA
Description: as §1

[8] = tested on: Trichophyton mentagrophytes var. gypseum 1773; test: Antifungal activity (Tm); assay type: cell-based; details: Trichophyton mentagrophytes
Description: as §1

Pyrene fluorimetry = assay type: physicochemical; details: 298 K
Description: To determine cmc by fluorimetry, a hydrophobic probe pyrene was added to a series of surfactant solutions at a concentration of 1 μM. The solutions were kept for 30–40 min for complete solubilization of the probe. The fluorescent emission spectra of pyrene were recorded on an F-7100 fluorimeter (Hitachi, Tokyo, Japan) using 10 × 4 mm quartz cuvette (Hellma Analytics, Müllheim, Germany) with the following settings: λex = 335 nm, λem = 350–600 nm, and scanning speed = 1200 nm/min. The cmc was calculated from the dependence of the pyrene polarity index (the ratio of the intensities of the first (373 nm) and third (383 nm) peaks) on the surfactant concentration.

[9] = tested on: Candida albicans ATCC 10231; test: Antifungal activity (Ca); assay type: cell-based; details: Candida albicans
Description: as §1

[10] = tested on: Aspergillus niger BKMF-1119; test: Antifungal activity (An); assay type: cell-based; details: Aspergillus niger
Description: as §1

[11] = Indomethacin solubilization, spectrophotometry; assay type: physicochemical; details: 298 K
Description: as §2, §3

[12] = Electrode potential measurement with Br− selective electrode (potentiometry); assay type: physicochemical; details: 298 K
Description: The electrode potential measurements were performed for the Br^− counterion using the I-160MI laboratory ionomer (JSC Scientific and Production Association of the Measuring Equipment, Moscow, Russia). Br^− selective electrode (ELIS-131Br) and a reference electrode (ESr-10101) were used for measurement of the electromotive force (ΔE) of aqueous solution of surfactants (the concentration from 0.02 to 0.5 mM for 12-12-12(Et); from 0.002 to 0.05 mM for 14-12-14(Et)). To calibrate the ionomer, a series of KBr solutions were prepared in the concentration range of 0.1 mM to 100 mM.
β = 0.5(2Ct − CBr^−)/(Ct − cmc).

[13] = tested on: Pseudomonas aeruginosa ATCC 9027; test: Antimicrobial activity (Pa); assay type: cell-based; details: Pseudomonas aeruginosa
Description: as §1

[14] = Tensiometry (Du Nouy ring), surface tension isotherms; assay type: physicochemical
Description: The surface tension isotherms of the micellar solutions were determined using the Du Nouy platinum ring detachment method on a K6 tensiometer (KRŰSS GmbH, Hamburg, Germany). For the experiment, surfactant solutions with a volume of 10 mL were prepared. The measurements were carried out strictly at 298 K in glass beakers, the diameter of which exceeded the diameter of the platinum ring. Surface tension measurements were carried out until stable values were obtained. After each measurement, the ring was degreased in ethanol and thoroughly dried. The cmc of the micellar solutions was determined from the breakpoint on the isotherm of surface tension versus surfactant concentration. The thermodynamic parameters of adsorption and micellization were calculated for all systems based on the obtained tensiometric curves.

[15] = tested on: Escherichia coli ATCC 25922; test: Antimicrobial activity (Ec); assay type: cell-based; details: Escherichia coli
Description: as §1

[16] = tested on: methicillin-resistant S. aureus MRSA-1 (resistant to fluoroquinolones and beta-lactams); test: Antimicrobial activity (MRSA-1); assay type: cell-based; details: Staphylococcus aureus, MRSA
Description: as §1

[17] = target: T2, human butyrylcholinesterase (hBChE) (Homo sapiens, UniProt P06276); test: In vitro cholinesterase inhibition, Ellman's method (hBChE); assay type: biochemical
T2 construct: purchased Sigma-Aldrich
T2 sequence (P06276 29-602): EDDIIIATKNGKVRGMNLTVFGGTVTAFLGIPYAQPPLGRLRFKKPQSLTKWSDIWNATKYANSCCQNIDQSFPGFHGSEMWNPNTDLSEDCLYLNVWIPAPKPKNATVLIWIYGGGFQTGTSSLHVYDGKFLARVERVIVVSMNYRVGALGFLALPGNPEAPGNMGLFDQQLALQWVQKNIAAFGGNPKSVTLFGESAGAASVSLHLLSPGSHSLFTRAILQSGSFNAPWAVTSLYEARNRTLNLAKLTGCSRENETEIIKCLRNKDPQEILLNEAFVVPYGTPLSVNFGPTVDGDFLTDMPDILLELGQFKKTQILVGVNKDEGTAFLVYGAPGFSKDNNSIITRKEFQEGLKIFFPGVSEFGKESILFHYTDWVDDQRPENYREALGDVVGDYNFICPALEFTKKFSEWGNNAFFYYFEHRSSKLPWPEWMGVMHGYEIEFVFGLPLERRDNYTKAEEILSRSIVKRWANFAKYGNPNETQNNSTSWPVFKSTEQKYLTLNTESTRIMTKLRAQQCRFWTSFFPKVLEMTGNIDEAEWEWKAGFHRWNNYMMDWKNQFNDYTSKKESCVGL
Description: as §4

CCCCCCCCCCCCCC[N+](C)(C)C.[Br-] [C14TAB]
Nagg [1]: 70

CCCCCCCCCCCCCC[N+](C)(CCCCCCCCCCCC[N+](C)(CCCCCCCCCCCCCC)CCOC(=O)NCC)CCOC(=O)NCC (stereo not shown) [14-12-14(Et)]
MBC ([2]; ATCC29212, read-out: MBC, Ef): 3.9 ± 0.2 µg/mL
MIC ([2]; ATCC29212, read-out: MIC, Ef): 3.9 ± 0.3 µg/mL
MBC ([3]; read-out: MBC, Sa): 3.9 ± 0.3 µg/mL
MIC ([3]; read-out: MIC, Sa): 3.9 ± 0.2 µg/mL
MBC ([4]; read-out: MBC, Bc): 125 ± 9 µg/mL
MIC ([4]; read-out: MIC, Bc): 125 ± 10 µg/mL
S (solubilizing capacity), OOT [5]: 0.047 molOOT/molGS
S (solubilizing capacity), OOT ([5]; 298 K): 0.047 molprobe/molGS
cmc, Spectrophotometry ([5]; OOT, 298 K): 0.045 ± 0.003 mM
Nagg (aggregation number) ([5]; Schott approach, OOT solubilization, 298 K): 16
cmccond (Conductometry): 0.05 mM and 0.05 ± 0.0013 mM
βcond (degree of counterion binding) (Conductometry): 0.44
IC50 [6]: 11 ± 0.5 nM
SIhBChE/hAChE (selectivity index) ([6]; IC50 hBChE / IC50 hAChE): 131
MBC ([7]; read-out: MBC, MRSA-2): 7.8 ± 0.7 µg/mL
MIC ([7]; read-out: MIC, MRSA-2): 7.8 ± 0.7 µg/mL
MFC ([8]; read-out: MFC, Tm): 250 ± 18 µg/mL
MIC ([8]; read-out: MIC, Tm): 250 ± 19 µg/mL
cmc, Fluorimetry (Pyrene fluorimetry): 0.014 mM and 0.014 ± 0.0004 mM
MFC ([9]; ATCC10231, read-out: MFC, Ca): 250 ± 21 µg/mL
MIC ([9]; ATCC10231, read-out: MIC, Ca): 250 ± 19 µg/mL
MFC ([10]; BKMF1119, read-out: MFC, An): > 250 µg/mL
MIC ([10]; BKMF1119, read-out: MIC, An): > 250 µg/mL
S (solubilizing capacity), IND [11]: 1.51 molprobe/molGS
βpot (degree of counterion binding) [12]: 0.3
MBC ([13]; ATCC9027, read-out: MBC, Pa): 125 ± 10 µg/mL
MIC ([13]; ATCC9027, read-out: MIC, Pa): 125 ± 10 µg/mL
Amin (surface area per surfactant molecule) ([14]; 298 K): 0.52 nm^2
Гmax∙10^6 (maximum surface excess) ([14]; 298 K): 3.21 mol∙m^−2
∆Gmic (free energy of micellization) ([14]; 298 K): -8.84 kcal/mol
calculated adsorption layer thickness ([14]; air/water interface): 3.3 nm
cmctens ([14]; tensiometry, 298 K): 0.013 mM and 0.013 ± 0.0007 mM
MBC ([15]; ATCC25922, read-out: MBC, Ec): 31.3 ± 2.6 µg/mL
MIC ([15]; ATCC25922, read-out: MIC, Ec): 31.3 ± 2.5 µg/mL
MBC ([16]; read-out: MBC, MRSA-1): 7.8 ± 0.6 µg/mL
MIC ([16]; read-out: MIC, MRSA-1): 7.8 ± 0.6 µg/mL
IC50 [17]: 1440 ± 520 nM

CCCCCCCCCCCCCCCC[N+](C)(C)C.[Br-] [C16TAB]
Nagg [1]: 89

CCCCCCCCCCCC[N+](C)(C)C.[Br-] [C12TAB]
Nagg [1]: 55
